{"source": "ChEMBL document CHEMBL5226340", "about": "“Chemical Biology of Sortase A Inhibition: A Gateway to Anti-infective Therapeutic Agents” (J Med Chem, 2021)", "key": {"Sortase A [1]": {"target": "T1, Sortase A (Staphylococcus aureus, UniProt Q9S446)", "T1 sequence (Q9S446 whole entry)": "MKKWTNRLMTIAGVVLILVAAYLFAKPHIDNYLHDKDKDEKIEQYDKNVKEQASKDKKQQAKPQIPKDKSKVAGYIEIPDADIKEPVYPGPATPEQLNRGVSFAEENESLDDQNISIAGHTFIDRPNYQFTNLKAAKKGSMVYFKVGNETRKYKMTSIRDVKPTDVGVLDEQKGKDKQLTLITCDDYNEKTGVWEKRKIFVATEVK", "assay": "Inhibition of Staphylococcus aureus ATCC 6538p SrtA using dabcyl-LPETG-edans as substrate incubated for 1 hr by fluorometric analysis"}, "Sortase A [2]": {"target": "T1, Sortase A", "assay": "Inhibition of Staphylococcus aureus SrtA catalytic domain (60 to 206 residues) using Abz-LPETGDap(Dnp)-NH2 as substrate preincubated for 1 hr followed by substrate addition and measured immediately by FRET assay"}, "Sortase A [3]": {"target": "T1, Sortase A", "assay": "Inhibition of Staphylococcus aureus SrtA using EDANS-Dabcyl as substrate by FRET assay"}, "Sortase A [4]": {"target": "T1, Sortase A", "assay": "Inhibition of recombinant Staphylococcus aureus ATCC 6538p SrtA expressed in Escherichia coli TOP10 using Dabcyl-QALPETGEE-Edans as substrate incubated for 1 hr by fluorometric analysis"}, "[5]": {"target": "T2, Sortase A (Staphylococcus aureus) (UniProt Q9S446)", "T2 sequence (whole entry)": "T1 sequence (Q9S446 whole entry)", "assay": "Binding affinity to Staphylococcus aureus SrtA assessed as kinact/ki"}, "Staphylococcus aureus [6]": {"tested_on": "Staphylococcus aureus", "assay": "Antibacterial activity against Staphylococcus aureus SA113 by microbroth dilution assay", "type": "functional"}, "Sortase A [7]": {"target": "T1, Sortase A", "assay": "Inhibition of Staphylococcus aureus SrtA with 24 residues truncated from N-terminus using Abz-LPATG-Dap as substrate"}, "Staphylococcus aureus [8]": {"tested_on": "Staphylococcus aureus", "assay": "Antibacterial activity against Staphylococcus aureus", "type": "functional"}, "Staphylococcus aureus [9]": {"tested_on": "Staphylococcus aureus", "assay": "Antibacterial activity against Staphylococcus aureus Newman assessed as inhibition of bacterial growth by spectrophotometer method", "type": "functional"}, "Sortase A [10]": {"target": "T1, Sortase A", "assay": "Inhibition of C-terminal 6His-tagged recombinant Staphylococcus aureus SrtA with 1 to 59 residues truncated from N-terminus expressed in Escherichia coli BL21 (DE3) using dabcyl-QALPETGEE-edans as substrate preincubated for 1 hr followed by substrate addition and measured for 1 hr by FRET assay"}, "Staphylococcus aureus [11]": {"tested_on": "Staphylococcus aureus", "assay": "Inhibition of biofilm formation in Staphylococcus aureus ATCC 29213 incubated for 24 hrs by crystal violet staining based analysis", "type": "functional, organism-based", "conditions": "ATCC 29213, 24 h"}, "Sortase A [12]": {"target": "T1, Sortase A", "assay": "Inhibition of Staphylococcus aureus SrtA (60 to 206 residues) using Abz-LPETG-Dap(Dnp)-NH2 as substrate incubated for 1 hr by FRET assay"}, "Sortase A [13]": {"target": "T1, Sortase A", "assay": "Inhibition of Staphylococcus aureus SrtA"}, "[14]": {"target": "T2, Sortase A (Staphylococcus aureus)", "assay": "Binding affinity to wild type recombinant Staphylococcus aureus SrtA using Dabcyl-Gln-Ala-Leu-Pro-Glu-Thr-Gly-Glu-Glu-Edans as substrate assessed as first order rate constant of inactivation by FRET assay"}, "[15]": {"target": "T2, Sortase A (Staphylococcus aureus)", "assay": "Binding affinity to wild type recombinant Staphylococcus aureus SrtA using Dabcyl-Gln-Ala-Leu-Pro-Glu-Thr-Gly-Glu-Glu-Edans as substrate assessed as second order rate constant of inhibition, kinact/Ki by FRET assay"}, "Sortase A [16]": {"target": "T1, Sortase A", "assay": "Binding affinity to wild type recombinant Staphylococcus aureus SrtA using Dabcyl-Gln-Ala-Leu-Pro-Glu-Thr-Gly-Glu-Glu-Edans as substrate by FRET assay"}, "[17]": {"target": "T2, Sortase A (Staphylococcus aureus)", "assay": "Inhibition of Staphylococcus aureus SrtA expressed in Escherichia coli BL21 (DE3) cells using Abz-LPETG-Dap(Dnp) as substrate assessed as kinact/ki"}, "Sortase A [18]": {"target": "T1, Sortase A", "assay": "Inhibition of Staphylococcus aureus SrtA expressed in Escherichia coli by fluorescence based analysis"}}, "note": "pIC50, pKi: −log10 of the molar value. Residues, ends and D or L forms follow the SMILES beside them. *: point of attachment. Cbz = O=C(OCc1ccccc1)*; CH2Cl = ClC*", "data": [{"smiles": "C[C@H]1CC[C@H]2[C@@H](C=C[C@@](C)(O)[C@]2(C)C(=O)CCO)C1", "values": [{"measurement": "pIC50", "setting": "Sortase A [1]", "result": 3.84}]}, {"smiles": "CCOc1c(S)cnn(-c2ccccc2)c1=O", "values": [{"measurement": "pIC50", "setting": "Sortase A [2]", "result": 4.46}]}, {"smiles": "O=C1N[C@H](c2c[nH]c3cc(Br)ccc23)CN=C1c1c[nH]c2ccccc12", "values": [{"measurement": "pIC50", "setting": "Sortase A [3]", "result": 4.08}]}, {"smiles": "O=c1c(O)c(-c2ccc(O)c(O)c2)oc2cc(O)cc(O)c12", "note": "[QUERCETIN]", "values": [{"measurement": "pIC50", "setting": "Sortase A [4]", "result": 4.28}]}, {"smiles": "O=c1c(OCCO)c(SSc2cnn(-c3cccc(F)c3)c(=O)c2OCCO)cnn1-c1cccc(F)c1", "values": [{"measurement": "pIC50", "setting": "Sortase A [2]", "result": 6.39}]}, {"smiles": "CSSc1ccccc1C(=O)N1CCC[C@H]1C(=O)NC12CC3CC(CC(C3)C1)C2", "values": [{"measurement": "Ratio", "setting": "[5]", "result": "5.75 10^4/M/min"}, {"measurement": "MIC", "setting": "Staphylococcus aureus [6]", "result": 116, "unit": "µM"}]}, {"smiles": "Clc1ccccc1-c1nn2c(-c3ccncc3)nnc2s1", "values": [{"measurement": "pIC50", "setting": "Sortase A [7]", "result": 4.42}]}, {"smiles": "O=c1cc(CO)oc(C(Nc2ccccn2)c2ccc(F)cc2)c1O", "note": "(centres undefined)", "values": [{"measurement": "MIC", "setting": "Staphylococcus aureus [8]", "result": "> 1580", "unit": "µM"}, {"measurement": "Ratio", "setting": "[5]", "result": "1.4 10^3/M/min"}]}, {"smiles": "O=C(/C=C/c1ccc(O)cc1)CC(=O)/C=C/c1ccc(O)cc1", "note": "[BISDEMETHOXYCURCUMIN]", "values": [{"measurement": "pIC50", "setting": "Sortase A [3]", "result": 3.99}, {"measurement": "MIC", "setting": "Staphylococcus aureus [8]", "result": "> 543", "unit": "µM"}]}, {"smiles": "O=C(/C=C/c1ccc(O)c(O)c1)O[C@@H]1C[C@](O)(C(=O)O)C[C@@H](O)[C@H]1O", "note": "[CHLOROGENIC ACID]", "values": [{"measurement": "pIC50", "setting": "Sortase A [3]", "result": 4.02}, {"measurement": "MIC", "setting": "Staphylococcus aureus [8]", "result": 2900, "unit": "µM"}]}, {"smiles": "C[C@@H]1O[C@@H](OC2=C(c3ccc(O)c(O)c3)Oc3cc(O)cc(O)c3[C@@H]2O)[C@H](O)[C@H](O)[C@H]1O", "values": [{"measurement": "pIC50", "setting": "Sortase A [3]", "result": 4.14}]}, {"smiles": "O=C(NCCSSCCNC(=O)/C(Cc1ccc(O)c(Br)c1)=N/O)/C(Cc1ccc(O)c(Br)c1)=N/O", "note": "[PSAMMAPLIN A]", "values": [{"measurement": "pIC50", "setting": "Sortase A [3]", "result": 4.32}, {"measurement": "MIC", "setting": "Staphylococcus aureus [9]", "result": "> 200", "unit": "µg/mL"}]}, {"smiles": "CCn1nc(C)cc1C(=O)/C(=N/Nc1ccc(Cl)c(Cl)c1)C(=O)O", "values": [{"measurement": "pIC50", "setting": "Sortase A [10]", "result": "< 3.70"}]}, {"smiles": "Cc1cc(C(=O)/C(=N/Nc2ccc(Cl)c(Cl)c2)C(=O)O)no1", "values": [{"measurement": "pIC50", "setting": "Sortase A [10]", "result": "< 3.70"}, {"measurement": "pIC50", "setting": "Staphylococcus aureus [11]", "result": 6.10}]}, {"smiles": "CCOc1c(SSc2cnn(-c3cccc(OC)c3)c(=O)c2OCC)cnn(-c2cccc(OC)c2)c1=O", "values": [{"measurement": "pIC50", "setting": "Sortase A [2]", "result": 6.21}]}, {"smiles": "CC(=O)/C(=N/Nc1ccc(Cl)c(Cl)c1)C(=O)O", "values": [{"measurement": "MIC", "setting": "Staphylococcus aureus [8]", "result": "> 270", "unit": "µM"}, {"measurement": "pIC50", "setting": "Sortase A [10]", "result": 4.30}]}, {"smiles": "O=S(=O)(O)c1cccc(-c2nn3c(-c4ccncc4)nnc3s2)c1", "values": [{"measurement": "pIC50", "setting": "Sortase A [7]", "result": 5.03}]}, {"smiles": "CCSSc1ccccc1C(=O)NCC(=O)NC12CC3CC(CC(C3)C1)C2", "values": [{"measurement": "Ratio", "setting": "[5]", "result": "5.79 10^4/M/min"}, {"measurement": "MIC", "setting": "Staphylococcus aureus [6]", "result": 7.74, "unit": "µM"}]}, {"smiles": "Clc1ccc(C2Nc3cccc4cccc(c34)N2)cc1", "values": [{"measurement": "pIC50", "setting": "Sortase A [12]", "result": 4.05}]}, {"smiles": "O=c1c(OCCO)c(SSc2cnn(-c3ccccc3)c(=O)c2OCCO)cnn1-c1ccccc1", "values": [{"measurement": "pIC50", "setting": "Sortase A [2]", "result": 6.66}]}, {"smiles": "COc1c(O)c2c(c3c1O[C@@]1(O)C(C)(C)[C@H](C)O[C@@]31O)C(=O)C(C)=CC2=O", "values": [{"measurement": "pIC50", "setting": "Sortase A [13]", "result": 4.63}]}, {"smiles": "COc1cc(/C=C/C(=O)O)ccc1O", "note": "[FERULATE]", "values": [{"measurement": "MIC", "setting": "Staphylococcus aureus [8]", "result": "> 5750", "unit": "µM"}, {"measurement": "pIC50", "setting": "Sortase A [13]", "result": 2.88}]}, {"smiles": "O=c1c(OCCCO)c(SSc2cnn(-c3ccccc3)c(=O)c2OCCCO)cnn1-c1ccccc1", "values": [{"measurement": "pIC50", "setting": "Sortase A [2]", "result": 6.08}]}, {"smiles": "O=c1cc(CO)oc(C(Nc2ccccn2)c2cccc(F)c2)c1O", "note": "(centres undefined)", "values": [{"measurement": "MIC", "setting": "Staphylococcus aureus [8]", "result": "> 1580", "unit": "µM"}, {"measurement": "Ratio", "setting": "[5]", "result": "2.4 10^3/M/min"}]}, {"smiles": "CC(C)C[C@H](NC(=O)OCc1ccccc1)C(=O)N1CCC[C@H]1C(=O)N[C@@H](C)C(=O)N[C@H](C(=O)CCl)[C@@H](C)O", "note": "(Cbz-LPAT-CH2Cl)", "values": [{"measurement": "Kinact", "setting": "[14]", "result": "1.1 10^-2/min"}, {"measurement": "Ratio", "setting": "[15]", "result": "5.3 10^4/M/min"}, {"measurement": "kinact/Ki", "setting": "[15]", "result": 883, "unit": "M⁻¹ s⁻¹"}, {"measurement": "pKi", "setting": "Sortase A [16]", "result": 6.70}]}, {"smiles": "C=CS(=O)(=O)c1ccccc1", "values": [{"measurement": "Ratio", "setting": "[17]", "result": 20.1, "unit": "M⁻¹ min⁻¹"}]}, {"smiles": "CC(=O)/C(=N/Nc1ccc([N+](=O)[O-])cc1)C(=O)O", "values": [{"measurement": "MIC", "setting": "Staphylococcus aureus [8]", "result": "> 270", "unit": "µM"}, {"measurement": "pIC50", "setting": "Sortase A [10]", "result": 4.24}]}, {"smiles": "Cc1cc2nc3[nH]c(=O)[nH]c(=O)c3nc2cc1C", "note": "[LUMICHROME]", "values": [{"measurement": "pIC50", "setting": "Sortase A [18]", "result": 3.70}]}, {"smiles": "O=c1cc(CO)oc(C(Nc2ccccn2)c2ccsc2)c1O", "note": "(centres undefined)", "values": [{"measurement": "MIC", "setting": "Staphylococcus aureus [8]", "result": "> 1550", "unit": "µM"}, {"measurement": "Ratio", "setting": "[5]", "result": "0.7 10^3/M/min"}]}]}
